Laboratory results taken from patent US20070009593A1, “Methods of treating cancer” (Indianan University Advanced Research, priority 2002, published 2007).
Read-outs that look alike come from different tables or passages of the source.

How the values were obtained:
[1] = tested on: breast cancer lines; test: propidium iodide flow cytometry; format: cell-based, human; settings: at the IC50 concentration of ritonavir
[2] = tested on: Caco 2 0.5-11 (calpastatin over-expressing); test: MTT assay, 96 well plate, 48 h; format: cell-based; settings: Homo sapiens, Caco-2, read-out: Ritonavir IC50, 0.5-11 line (calpain activity reduction of 80%)
[3] = tested on: MDA-436IκBSR (super-repressor of NF-κB over-expressed); test: MTT assay, breast cancer line; format: cell-based; settings: Homo sapiens, read-out: Ritonavir IC50
[4] = tested on: MDA-MB-231 human breast cancer tumors; test: MDA-MB-231 xenograft model; format: in vivo, nude mice; settings: 40 mg/kg
Method: (Tumor size was measured by the method volume in cubic mm=length×[width]squared/2.) The tumors in this preliminary experiment took 7 weeks to grow and represent established tumors. […] FIG. 6B confirms the finding of 6A, showing that all three of the control tumors progressed. […] FIG. 6C depicts weight of the tumor when measured at days 1, 6, 9, and 13. FIG. 6D depicts weight of the animal when measured at days 1, 3, 6, 10, and 13.

[5] = tested on: Surface EGFR; test: surface EGFR in breast cancer lines under ritonavir; format: cell-based, human; set-up: reference not given here
[6] = tested on: A549; test: MTT assay, NSCLC cell line; format: cell-based; settings: Homo sapiens
[7] = tested on: breast cancer lines; test: Annexin V/propidium iodide flow cytometry; format: cell-based, human; settings: at the ritonavir IC50 and IC80
[8] = tested on: MDA-MB-436 (436); test: clonogenic assay (LD50), ritonavir sensitivity; format: cell-based, human; settings: 436 cells
Excerpt: (§1) MCF7 and MDA-MB-435 (435) had relatively low m-calpain levels, whereas MDA-MB-231 (231), MDA-MB-436 (436) and Caco 2 had relatively high m-calpain levels.
(§2) We note that the IC50 is derived from MTT assays, while the LD50 is derived from clonogenic assays.

[9] = tested on: MDA-MB-435 (435); test: clonogenic assay (LD50), ritonavir sensitivity; format: cell-based, human; settings: 435 cells
Excerpt: as §1, §2

[10] = tested on: MDA-MB-231 (231); test: clonogenic assay (LD50), ritonavir sensitivity; format: cell-based, human; settings: 231 cells
Excerpt: as §1, §2

[11] = tested on: MCF7; test: clonogenic assay (LD50), ritonavir sensitivity; format: cell-based, human
Excerpt: as §1, §2

[12] = tested on: H522; test: MTT assay, NSCLC cell line; format: cell-based; settings: Homo sapiens
[13] = tested on: HUVEC; test: HUVEC cell spreading assay; format: cell-based, human; settings: 40 μM
Method: Cells were fixed in 3.7% formaldehyde in PBS, blocked and stained with Oregon-green phalloidin 514 (Molecular Probes), and then digitally photographed using a Zeiss inverted fluorescence microscope equipped with a CCD camera. Cell areas were measured on the digital images using the Spot program (Diagnostic Imaging).

[14] = tested on: H460; test: MTT assay, NSCLC cell line; format: cell-based; settings: Homo sapiens
[15] = tested on: EGF receptor; test: EGF receptor expression in Caco 2 cells, Western blot; format: cell-based; settings: 20 μM, 24 hours, confluent Caco 2
Method: The medium was not changed. After 24 hours, the cells were harvested by Triton X-100 lysis, and Western blot analysis was performed on the supernatant, which contains solubilized EGF receptor.

[16] = tested on: MDA-436LXSN (vector control line); test: MTT assay, breast cancer line; format: cell-based; settings: Homo sapiens, read-out: Ritonavir IC50
[17] = tested on: 436 with expression of IκB α super-repressor of NF-κB; test: clonogenic assay (LD50), ritonavir sensitivity; format: cell-based, human; settings: 436 expressing IκB α super-repressor of NF-κB
Excerpt: This finding is consistent with the implication of signaling pathways in the resistance of breast cancer cell lines to chemotherapy (Patel et al., Oncogene 19:4159-4169).
as §2

[18] = biological target: T1, m-calpain (Homo sapiens, UniProt P17655); test: ionomycin activated m-calpain activity in Caco 2A cells; format: cell-based; settings: 0, 5, 10, 20, and 120 μM, FIG. 3
T1 construct: endogenous in cells; host or cells: Caco 2A
Method: (The Caco 2a calls were treated and analyzed as in Example 4).

[19] = tested on: Surface her2; test: surface her2 in breast cancer lines under ritonavir; format: cell-based, human; settings: SKBR-3, ritonavir treatment
[20] = tested on: Caco 2 2-3 (calpastatin over-expressing); test: MTT assay, 96 well plate, 48 h; format: cell-based; settings: Homo sapiens, Caco-2, read-out: Ritonavir IC50, 2-3 line
[21] = tested on: MDA-MB-435 human breast cancer xenografts; test: nude mouse mammary fat pad xenograft model; format: in vivo, nude mice; settings: 19 days
Method: An inoculum of 5×10^5 MDA-MB-435 cells in 100 μl was injected into the mammary fat pad of each female animal. […] The tumor growth rate was reduced by 16% in the mice treated at 20 mg/kg, compared to the mice treated with vehicle.

[22] = tested on: Caco 2 cells; test: proliferation / combination assay in colon cancer cells; format: cell-based; settings: Homo sapiens
[23] = ritonavir serum levels in mice
[24] = tested on: H23; test: MTT assay, NSCLC cell line; format: cell-based; settings: Homo sapiens, NCI-H23
[25] = biological target: T2, chymotryptic active site of the proteasome (ZGGL-AMC cleavage) (Homo sapiens, UniProt P28074); test: fluorometric assay of ZGGL-AMC cleavage by Caco 2 cells; format: cell-based; settings: for ZGGL-AMC cleavage: Caco 2 cells (DMSO control 0.287)
T2 construct: Fluorometric assay of ZGGL-AMC cleavage by Caco 2 cells; endogenous in cells; host or cells: Caco 2

T1 sequence (P17655 20-700 limits assumed): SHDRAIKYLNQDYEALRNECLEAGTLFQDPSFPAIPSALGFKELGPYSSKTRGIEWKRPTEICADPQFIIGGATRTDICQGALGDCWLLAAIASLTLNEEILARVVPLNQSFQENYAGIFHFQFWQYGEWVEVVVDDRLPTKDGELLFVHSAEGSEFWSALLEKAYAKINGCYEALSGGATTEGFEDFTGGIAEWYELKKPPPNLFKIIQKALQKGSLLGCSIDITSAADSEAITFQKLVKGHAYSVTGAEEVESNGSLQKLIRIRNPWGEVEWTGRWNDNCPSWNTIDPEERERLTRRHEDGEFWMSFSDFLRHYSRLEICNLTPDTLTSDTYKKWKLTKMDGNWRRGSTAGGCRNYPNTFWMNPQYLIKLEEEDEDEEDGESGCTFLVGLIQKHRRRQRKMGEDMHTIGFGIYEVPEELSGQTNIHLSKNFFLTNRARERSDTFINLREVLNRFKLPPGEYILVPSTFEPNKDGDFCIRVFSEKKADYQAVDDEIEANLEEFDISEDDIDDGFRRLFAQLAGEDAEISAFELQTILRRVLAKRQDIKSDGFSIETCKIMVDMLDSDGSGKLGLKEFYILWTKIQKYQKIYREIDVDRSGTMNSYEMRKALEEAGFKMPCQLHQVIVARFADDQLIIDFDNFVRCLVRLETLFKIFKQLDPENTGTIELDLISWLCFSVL
T1 sequence (P04632 whole entry partner): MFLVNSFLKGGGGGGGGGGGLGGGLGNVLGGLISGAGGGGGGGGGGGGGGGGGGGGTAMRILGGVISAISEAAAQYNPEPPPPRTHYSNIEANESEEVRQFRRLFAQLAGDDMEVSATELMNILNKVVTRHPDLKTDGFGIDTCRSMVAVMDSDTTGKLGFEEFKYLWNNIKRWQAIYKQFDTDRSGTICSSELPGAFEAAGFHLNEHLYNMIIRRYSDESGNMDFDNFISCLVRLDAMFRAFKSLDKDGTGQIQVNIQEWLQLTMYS

CC(C)c1nc(CN(C)C(=O)N[C@H](C(=O)N[C@@H](Cc2ccccc2)C[C@H](O)[C@H](Cc2ccccc2)NC(=O)OCc2cncs2)C(C)C)cs1 [Ritonavir, ritonavir]
cell cycle [1]: induces cell cycle arrest | IC50 [2]: 15 µM | IC50 [3]: 26 µM | growth rate of tumors ([4]; nude mice, FIG. 6C): decrease the growth rate of tumors | weight of the animal ([4]; nude mice, FIG. 6D): without causing wasting of the mice | tumor response ([4]; three established tumors, FIG. 6A): two tumors of three exhibited stable disease | Surface EGFR (Ritonavir) ([5]; MCF7, ritonavir treatment): 1 | Surface EGFR (Ritonavir) ([5]; MDA-231, ritonavir treatment): 0.5 | Surface EGFR (Ritonavir) ([5]; MDA-436, ritonavir treatment): 0.5 | Surface EGFR (Ritonavir) ([5]; SKBR-3, ritonavir treatment): 0.36 | Surface EGFR (Ritonavir) ([5]; T47D, ritonavir treatment): 1 | IC80 ([6]; A549, MTT assay, single agent): 45 µM | IC50 ([6]; MTT assay): 35 µM | apoptosis [7]: increased apoptosis | LD50 [8]: 55 µM | LD50 [9]: 16 µM | LD50 [10]: 60 μm | LD50 [11]: 25 µM | IC50 ([12]; NCI-H522): 42.5 µM | IC80 ([12]; NCI-H522, single agent): 90 µM | reduction of cell area ([13]; 1 hour of spreading): 15% | cell area ([13]; 1 hour spreading on fibronectin): 4100±160 μm^2 | IC50 ([14]; NCI-H460): 47.5 µM | IC80 ([14]; NCI-H460, single agent): 100 µM | EGF receptor down regulated [15]: 20% | IC50 [16]: 42 µM | LD50 [17]: 40 µM | inomycin activated m-calpain [18]: dose dependent decrease | Surface her2 Ritonavir [19]: 0.4 | IC50 [20]: 20 µM | tumor growth rate reduced, compared to vehicle ([21]; 10 mg/kg daily gavage, one outlier tumor removed): 49% | tumor growth rate reduced, compared to vehicle ([21]; 20 mg/kg daily gavage, all tumors): 16% | tumor growth rate reduced, compared to vehicle ([21]; 20 mg/kg daily gavage, outlier tumor removed): 55% | IC50 ([22]; Caco-2, 48 h, read-out: IC50 (50% inhibition of proliferation)): 30 µM | IC50 ([22]; Caco 2, single agent, read-out: IC50): 45 µM | trough drug levels ([23]; Tween 80, ip injection): less than 0.1 μM | peak ritonavir concentrations ([23]; oral gavage, Norvir liquid, 40 mg/kg body weight): less than 1 μM | IC50 [24]: 44 µM | ZGGL-AMC cleavage ([25]; 6 μM): 0.432 pmol·s^1− 10^6 cells | ZGGL-AMC cleavage ([25]; 12 μM): 0.412 pmol·s^1− 10^6 cells | ZGGL-AMC cleavage ([25]; 24 μM): 0.337 pmol·s^1− 10^6 cells | ZGGL-AMC cleavage ([25]; 60 μM): 0.409 pmol·s^1− 10^6 cells | effect on ZGGL-AMC cleavage ([25]; Caco 2 cells): does not block cleavage
